Experimental data as given in ChEMBL document CHEMBL1201862, “PubChem BioAssay data set” (2004).
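Five compound concentrations were applied to cells in 96-well plates for 48 hours; endpoints were derived by simple linear interpolation of the resulting dose-response curve. The concentration for 50% growth inhibition is given as GI50.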 Activity calls are given as the source filed them. Rule as the data show it: active = GI50 up to about 1.1 µM and inactive = higher.

Tests used:
Experiment in all cases: NCI tumour cell line growth inhibition, 48 h
[1] = system: MDA-N
[2] = system: MDA-MB-231
[3] = system: UACC-257
[4] = system: NCI-H226
[5] = system: NCI/ADR-RES
[6] = system: ACHN
[7] = system: K562
[8] = system: HCT-116
[9] = system: RPMI-8226
[10] = system: SW-620
[11] = system: Hs-578T
[12] = system: TK-10
[13] = system: NCI-H522
[14] = system: COLO 205
[15] = system: T47D
[16] = system: CAKI-1
[17] = system: SN12C
[18] = system: DU-145
[19] = system: RXF 393
[20] = system: OVCAR-4

SMILES	GI50 [1]	GI50 [2]	GI50 [3]	GI50 [4]	GI50 [5]	GI50 [6]	GI50 [7]	GI50 [8]	GI50 [9]	GI50 [10]	GI50 [11]	GI50 [12]	GI50 [13]	GI50 [14]	GI50 [15]	GI50 [16]	GI50 [17]	GI50 [18]	GI50 [19]	GI50 [20]
COc1cc(/C=C2\CC3C4CC=C5C[C@@H](O)CC[C@]5(C)C4CC[C@]3(C)\C2=N\O)cc(OC)c1OC (stereo not given in full)	6.37 µM (inactive)	7.31 µM (inactive)	9.91 µM (inactive)	7.96 µM (inactive)	7.6 µM (inactive)	3.2 µM (inactive)	34.4 µM (inactive)	4.05 µM (inactive)	10.4 µM (inactive)	16.7 µM (inactive)	4.42 µM (inactive)	7.53 µM (inactive)	4.93 µM (inactive)	3.73 µM (inactive)	2.72 µM (inactive)	3.94 µM (inactive)	7.13 µM (inactive)	12.9 µM (inactive)	3.61 µM (inactive)	3.94 µM (inactive)
COc1cc(C/N=c2/nc(N(C)C)ss2)cc(OC)c1OC	> 10 µM (inactive)	> 10 µM (inactive)	> 10 µM (inactive)	> 10 µM (inactive)	> 10 µM (inactive)	> 10 µM (inactive)	1.46 µM (inactive)	8.85 µM (inactive)	2.48 µM (inactive)	5.6 µM (inactive)	> 10 µM (inactive)	> 10 µM (inactive)	> 10 µM (inactive)	> 10 µM (inactive)	> 10 µM (inactive)	> 10 µM (inactive)	> 10 µM (inactive)	> 10 µM (inactive)	> 10 µM (inactive)	> 9.27 µM (inactive)
C[C@@]12C[C@@H](c3ccccc3O1)N1CCCSC1=N2	> 100 µM (inactive)	> 100 µM (inactive)	> 100 µM (inactive)	> 100 µM (inactive)	> 100 µM (inactive)	> 100 µM (inactive)	> 100 µM (inactive)	> 100 µM (inactive)	> 100 µM (inactive)	> 100 µM (inactive)	> 100 µM (inactive)	> 100 µM (inactive)	> 100 µM (inactive)	> 100 µM (inactive)	> 100 µM (inactive)	> 100 µM (inactive)	> 100 µM (inactive)	> 100 µM (inactive)	> 100 µM (inactive)	> 100 µM (inactive)
NC(=O)N(O)c1cccc(Br)c1	> 100 µM (inactive)	> 100 µM (inactive)	> 100 µM (inactive)	> 100 µM (inactive)	> 100 µM (inactive)	> 100 µM (inactive)	> 100 µM (inactive)	> 100 µM (inactive)	> 100 µM (inactive)	> 100 µM (inactive)	> 100 µM (inactive)	> 100 µM (inactive)	> 100 µM (inactive)	> 100 µM (inactive)	> 100 µM (inactive)	> 100 µM (inactive)	> 100 µM (inactive)	> 100 µM (inactive)	> 100 µM (inactive)	> 100 µM (inactive)
CC1(C)O[C@@H]2[C@@H]3OC(=O)C[C@@H]3[C@@H](COCc3ccccc3)[C@@H]2O1	> 100 µM (inactive)	> 100 µM (inactive)	> 100 µM (inactive)	> 100 µM (inactive)	> 100 µM (inactive)	> 100 µM (inactive)	> 100 µM (inactive)	> 100 µM (inactive)	> 100 µM (inactive)	> 100 µM (inactive)	> 100 µM (inactive)	> 100 µM (inactive)	> 100 µM (inactive)	> 100 µM (inactive)	> 100 µM (inactive)	> 100 µM (inactive)	> 100 µM (inactive)	> 100 µM (inactive)	> 100 µM (inactive)	> 100 µM (inactive)
CN1CCN(c2c(Cl)cc(Cl)c3[nH]c4ccccc4c(=O)c23)CC1	8.41 µM (inactive)	10.3 µM (inactive)	8.45 µM (inactive)	9.77 µM (inactive)	7.35 µM (inactive)	2.9 µM (inactive)	3.66 µM (inactive)	3.21 µM (inactive)	3.1 µM (inactive)	3.82 µM (inactive)	4.8 µM (inactive)	10.6 µM (inactive)	2.77 µM (inactive)	4.17 µM (inactive)	9.23 µM (inactive)	5.68 µM (inactive)	6.12 µM (inactive)	5.4 µM (inactive)	12.6 µM (inactive)	11.7 µM (inactive)
CN(C)/C=C/c1c2c(nc3ccccc13)C(=O)c1ccccc1C2=O	0.483 µM (active)	1.55 µM (inactive)	0.498 µM (active)	1.15 µM (inactive)	1.71 µM (inactive)	0.598 µM (active)	0.151 µM (active)	0.923 µM (active)	0.0989 µM (active)	1.62 µM (inactive)	1.04 µM (active)	2.13 µM (inactive)	1.16 µM (inactive)	1.79 µM (inactive)	1.41 µM (inactive)	2.06 µM (inactive)	1.26 µM (inactive)	1.38 µM (inactive)	3.2 µM (inactive)	1.58 µM (inactive)
Cc1ccc(/N=N\c2c(O)ccc3cc(S(=O)(=O)O)ccc23)cc1	> 100 µM (inactive)	> 100 µM (inactive)	> 100 µM (inactive)	> 100 µM (inactive)	> 100 µM (inactive)	> 100 µM (inactive)	> 100 µM (inactive)	> 100 µM (inactive)	> 100 µM (inactive)	> 100 µM (inactive)	> 100 µM (inactive)	> 100 µM (inactive)	> 100 µM (inactive)	> 100 µM (inactive)	> 100 µM (inactive)	> 100 µM (inactive)	> 100 µM (inactive)	> 100 µM (inactive)	> 100 µM (inactive)	> 100 µM (inactive)
CCN(CC)C(=S)SS(=O)(=O)c1ccc(Cl)cc1	36.1 µM (inactive)	34.9 µM (inactive)	24.2 µM (inactive)	62.7 µM (inactive)	35.4 µM (inactive)	33.2 µM (inactive)	14.5 µM (inactive)	30.3 µM (inactive)	15 µM (inactive)	17.1 µM (inactive)	43.5 µM (inactive)	67.8 µM (inactive)	0.0319 µM (active)	26.5 µM (inactive)	46.2 µM (inactive)	19.8 µM (inactive)	20.2 µM (inactive)	27.3 µM (inactive)	17.6 µM (inactive)	45.5 µM (inactive)
CN(C)CCCn1c2ccccc2c2cnccc21	25.2 µM (inactive)	30.8 µM (inactive)	18.7 µM (inactive)	24.1 µM (inactive)	36.1 µM (inactive)	33.8 µM (inactive)	26.2 µM (inactive)	19.7 µM (inactive)	26.7 µM (inactive)	26.4 µM (inactive)	42.7 µM (inactive)	26.8 µM (inactive)	23.8 µM (inactive)	14.6 µM (inactive)	70.8 µM (inactive)	38.7 µM (inactive)	17.1 µM (inactive)	43.9 µM (inactive)	57.4 µM (inactive)	39.6 µM (inactive)
CCOc1ccc(/N=N/S(=O)(=O)O)cc1	> 100 µM (inactive)	> 100 µM (inactive)	> 100 µM (inactive)	> 100 µM (inactive)	> 100 µM (inactive)	> 100 µM (inactive)	> 100 µM (inactive)	> 100 µM (inactive)	> 100 µM (inactive)	> 100 µM (inactive)	> 100 µM (inactive)	> 100 µM (inactive)	> 100 µM (inactive)	> 100 µM (inactive)	> 100 µM (inactive)	> 100 µM (inactive)	> 100 µM (inactive)	> 100 µM (inactive)	> 100 µM (inactive)	> 100 µM (inactive)
COc1cc(C(=O)NC(CCN)(c2ccccc2)c2ccccc2)cc(OC)c1OC	19.2 µM (inactive)	16.9 µM (inactive)	16.8 µM (inactive)	30.8 µM (inactive)	42.7 µM (inactive)	24.8 µM (inactive)	12.9 µM (inactive)	> 42.4 µM (inactive)	> 10 µM (inactive)	29.6 µM (inactive)	> 56.2 µM (inactive)	28.8 µM (inactive)	16.6 µM (inactive)	14.1 µM (inactive)	23.4 µM (inactive)	35.4 µM (inactive)	21.7 µM (inactive)	> 31.6 µM (inactive)	10.4 µM (inactive)	21.2 µM (inactive)
